Patent publication US20240400555A1 (Initial Therapeutics, Inc., priority 2023, published 2024)
pIC50: −log10 of the molar value.

system: MV-4-11 cells; experiment: Cell Viability Assay in MV-4-11 Cells; assay type: cell-based; conditions: Homo sapiens, MV4-11, 72 h
In short: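 Luminescent ATP read-out (CellTiter-Glo) after 72 h compound treatment of MV-4-11 leukaemia cells (7,000 per well, IMDM plus 10% FBS). Values expressed relative to DMSO control and derived by four-parameter non-linear regression.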

Compound | pIC50
Cc1cccc2ccnc(N(C(=O)N3CCC[C@H](CCC(=O)Nc4ccccc4)C3)[C@@H]3CCCNC3)c12 [Example 344, N-(8-methylisoquinolin-1-yl)-3-(3-oxo-3-(phenylamino)propyl)-N—((R)-piperidin-3-yl) piperidine-1-carboxamide] | 6.03

same assay, conditions: Homo sapiens, MV4-11, 72 h, MV-4-11 cells, 72 h, Cell-Titer Glo; read-out: IC50

Compound | pIC50
Cc1nnc(-c2ccc3c(N(C(=O)c4ccc(-n5nnc6cccnc65)cc4F)[C@@H]4CCCNC4)nccc3c2)s1 [Example 576, (R)-4-(3H-[1,2,3]triazolo[4,5-b]pyridin-3-yl)-2-fluoro-N-(6-(5-methyl-1,3,4-thiadiazol-2-yl)isoquinolin-1-yl)-N-(piperidin-3-yl)benzamide] | 6.37
COc1ccc(F)c2c(N(C(=O)c3ccc(-c4cn(C)nn4)cc3)[C@@H]3CCCNC3)nccc12 [Example 873, N-(8-fluoro-5-methoxy-1-isoquinolyl)-4-(1-methyltriazol-4-yl)-N-[(3R)-3-piperidyl] benzamide] | < 5.28
Cn1cc(-c2ccc(C(=O)N(c3nccc4sc(Br)cc34)[C@@H]3CCCNC3)cc2O)cn1 [Example 475, N-(2-bromothieno[3,2-c]pyridin-4-yl)-3-hydroxy-4-(1-methylpyrazol-4-yl)-N-[(3R)-3-piperidyl] benzamide] | 5.34
Cc1cccc2ccnc(N(C(=O)c3ccc(Nc4nccc(C(=O)O)n4)cc3F)[C@@H]3CCCNC3)c12 [Example 401, (R)-2-((3-fluoro-4-((8-methylisoquinolin-1-yl)(piperidin-3-yl)carbamoyl)phenyl)amino)pyrimidine-4-carboxylic acid] | < 5.00
Cc1cccc2ccnc(N(C(=O)c3ccc(N(C)c4ncccn4)cc3F)[C@@H]3CCCNC3)c12 [Example 928, (R)-2-fluoro-4-(methyl(pyrimidin-2-yl)amino)-N-(8-methylisoquinolin-1-yl)-N-(piperidin-3-yl)benzamide] | 6.60
O=C(c1ccc(-n2nnc3cccnc32)cc1F)N(c1nccc2sc(-c3cnn(-c4ccccn4)c3)cc12)[C@@H]1CCCNC1 [Example 435, 2-fluoro-N-[(3R)-3-piperidyl]-N-[2-[1-(2-pyridyl)pyrazol-4-yl]thieno[3,2-c]pyridin-4-yl]-4-(triazolo[4,5-b]pyridin-3-yl)benzamide] | 6.52
O=C(c1ccc(-n2nnc3cccnc32)cc1F)N(c1nccc2cccnc12)[C@@H]1CCCNC1 [Example 325, (R)-4-(3H-[1,2,3]triazolo[4,5-b]pyridin-3-yl)-2-fluoro-N-(1,7-naphthyridin-8-yl)-N-(piperidin-3-yl)benzamide] | 5.82
Cn1cc(-c2ccc(C(=O)N(c3nccc4cc(/C=C/C(=O)O)ccc34)[C@@H]3CCCNC3)c(F)c2)nn1 [Example 494, (R,E)-3-(1-(2-fluoro-4-(1-methyl-1H-1,2,3-triazol-4-yl)-N-(piperidin-3-yl)benzamido)isoquinolin-6-yl)acrylic acid] | < 5.00
Nc1nccc(-c2cc3c(N(C(=O)c4ccc(-n5nnc6cccnc65)cc4F)[C@@H]4CCCNC4)nccc3s2)n1 [Example 457, N-[2-(2-aminopyrimidin-4-yl)thieno[3,2-c]pyridin-4-yl]-2-fluoro-N-[(3R)-3-piperidyl]-4-(triazolo[4,5-b]pyridin-3-yl)benzamide] | 6.54
Cn1cc(-c2ccc(C(=O)N(c3nccc4sc(-c5ccc(C(N)=O)cc5)cc34)[C@@H]3CCCNC3)c(F)c2)nn1 [Example 840, N-[2-(4-carbamoylphenyl)thieno[3,2-c]pyridin-4-yl]-2-fluoro-4-(1-methyltriazol-4-yl)-N-[(3R)-3-piperidyl] benzamide] | 5.92
Cn1cc(-c2ccc(C(=O)N(c3nccc4cc(Cl)ccc34)[C@@H]3CCCNC3)cc2)nn1 [Example 808, (R)—N-(6-chloroisoquinolin-1-yl)-4-(1-methyl-1H-1,2,3-triazol-4-yl)-N-(piperidin-3-yl)benzamide] | 6.38
Cn1cc(-c2ccc(C(=O)N(c3nccc4c(F)cccc34)[C@@H]3CCCNC3)c(F)c2)nn1 [Example 759, (R)-2-fluoro-N-(5-fluoroisoquinolin-1-yl)-4-(1-methyl-1H-1,2,3-triazol-4-yl)-N-(piperidin-3-yl)benzamide] | 6.28
Cc1cccc2ccnc(N(C(=O)c3ccc(-n4nnc5cccnc54)cc3C(F)(F)F)[C@@H]3CCCNC3)c12 [Example 312, (R)-4-(3H-[1,2,3]triazolo[4,5-b]pyridin-3-yl)-N-(8-methylisoquinolin-1-yl)-N-(piperidin-3-yl)-2-(trifluoromethyl)benzamide] | 5.59
Cc1cccc2ccnc(N(C(=O)c3cccc(C#CCCN4C(=O)c5ccccc5C4=O)c3)[C@@H]3CCCNC3)c12 [Example 588, (R)-3-(4-(1,3-dioxoisoindolin-2-yl)but-1-yn-1-yl)-N-(8-methylisoquinolin-1-yl)-N-(piperidin-3-yl)benzamide] | 6.10
Cc1cc(C2CCN(C(=O)N(c3nccc4cc(F)cc(C)c34)[C@@H]3CCCNC3)CC2)on1 [Example 658, (R)—N-(6-fluoro-8-methylisoquinolin-1-yl)-4-(3-methylisoxazol-5-yl)-N-(piperidin-3-yl)piperidine-1-carboxamide] | 6.21

Next, values leading:

pIC50 | Compound
6.70 | NC(=O)c1ccc2c(N(C(=O)c3ccc(-n4nnc5cccnc54)cc3F)[C@@H]3CCCNC3)nccc2c1 [Example 453, (R)-1-(4-(3H-[1,2,3]triazolo[4,5-b]pyridin-3-yl)-2-fluoro-N-(piperidin-3-yl)benzamido)isoquinoline-6-carboxamide]
6.62 | CCc1nnc(-c2ccc(C(=O)N(c3nccc4cccc(C)c34)[C@@H]3CCCNC3)nc2)s1 [Example 673, 5-(5-ethyl-1,3,4-thiadiazol-2-yl)-N-(8-methyl-1-isoquinolyl)-N-[(3R)-3-piperidyl]pyridine-2-carboxamide]
6.89 | Cc1cccc2ccnc(N(C(=O)c3ccc(Nc4nccc(N[C@H]5CC[C@H](O)CC5)n4)cc3F)[C@@H]3CCCNC3)c12 [Example 946, 2-fluoro-4-(4-((1r,4r)-4-hydroxycyclohexylamino)pyrimidin-2-ylamino)-N-(8-methylisoquinolin-1-yl)-N—((R)-piperidin-3-yl)benzamide]
8.28 | Cc1cccc2ccnc(N(C(=O)c3ccc(Nc4nccc(N5CCOCC5)n4)cc3F)[C@@H]3CCCNC3)c12 [Example 408, (R)-2-fluoro-N-(8-methylisoquinolin-1-yl)-4-((4-morpholinopyrimidin-2-yl)amino)-N-(piperidin-3-yl)benzamide]
7.31 | Cc1ncc(-c2cc(C)c3c(N(C(=O)c4ccc(-c5nnc(C)s5)cc4F)[C@@H]4CCCNC4)nccc3c2)s1 [Example 732, 2-fluoro-N-[8-methyl-6-(2-methylthiazol-5-yl)-1-isoquinolyl]-4-(5-methyl-1,3,4-thiadiazol-2-yl)-N-[(3R)-3-piperidyl]benzamide]
6.74 | Cn1cc(-c2ccc(C(=O)N(c3nccc4cc(-c5cccnc5)ccc34)[C@@H]3CCCNC3)c(F)c2)nn1 [Example 370, (R)-2-fluoro-4-(1-methyl-1H-1,2,3-triazol-4-yl)-N-(piperidin-3-yl)-N-(6-(pyridin-3-yl)isoquinolin-1-yl)benzamide]
7.09 | Cc1cccc2ccnc(N(C(=O)c3ccc(Nc4nccc(-n5cccn5)n4)cc3F)[C@@H]3CCCNC3)c12 [Example 723, (R)-4-((4-(1H-pyrazol-1-yl)pyrimidin-2-yl)amino)-2-fluoro-N-(8-methylisoquinolin-1-yl)-N-(piperidin-3-yl)benzamide]
7.12 | Cc1cccc2ccnc(N(C(=O)c3ccc(Nc4nccc(N5CC(O)C5)n4)cc3F)[C@@H]3CCCNC3)c12 [Example 680, (R)-2-fluoro-4-((4-(3-hydroxyazetidin-1-yl)pyrimidin-2-yl)amino)-N-(8-methylisoquinolin-1-yl)-N-(piperidin-3-yl)benzamide]
6.66 | COc1cc(-c2cc3c(N(C(=O)c4ccc(-n5nnc6cccnc65)cc4F)[C@@H]4CCCNC4)nccc3s2)ccn1 [Example 460, 2-fluoro-N-[2-(2-methoxy-4-pyridyl)thieno[3,2-c]pyridin-4-yl]-N-[(3R)-3-piperidyl]-4-(triazolo[4,5-b]pyridin-3-yl)benzamide]
6.64 | NC(=O)c1ccc(-c2cc3c(N(C(=O)c4ccc(-n5nnc6cccnc65)cc4F)[C@@H]4CCCNC4)nccc3s2)cc1F [Example 567, 2-fluoro-4-[4-[[2-fluoro-4-(triazolo[4,5-b]pyridin-3-yl)benzoyl]-[(3R)-3-piperidyl]amino]thieno[3,2-c]pyridin-2-yl]benzamide]
7.55 | Cc1cccc2ccnc(N(C(=O)c3ccc(-n4nnc5cccnc54)cc3Cl)[C@@H]3CCCNC3)c12 [Example 310, (R)-4-(3H-[1,2,3]triazolo[4,5-b]pyridin-3-yl)-2-chloro-N-(8-methylisoquinolin-1-yl)-N-(piperidin-3-yl) benzamide]
6.70 | Cc1cccc2ccnc(N(C(=O)c3ccc(-c4cn(C)nn4)cn3)[C@@H]3CCCNC3)c12 [Example 809, (R)-5-(1-methyl-1H-1,2,3-triazol-4-yl)-N-(8-methylisoquinolin-1-yl)-N-(piperidin-3-yl)picolinamide]
6.77 | Cn1cc(-c2ccc(C(=O)N(c3nccc4cccc(Cl)c34)[C@@H]3CCCNC3)cc2)nn1 [Example 800, (R)—N-(8-chloroisoquinolin-1-yl)-4-(1-methyl-1H-1,2,3-triazol-4-yl)-N-(piperidin-3-yl)benzamide]
6.82 | Cc1nnc(-c2ccc(C(=O)N(c3nccc4cc(F)cc(C)c34)[C@@H]3CCCNC3)c(F)c2)o1 [Example 776, (R)-2-fluoro-N-(6-fluoro-8-methylisoquinolin-1-yl)-4-(5-methyl-1,3,4-oxadiazol-2-yl)-N-(piperidin-3-yl)benzamide]

same assay, conditions: MV-4-11 cells, 72 h, Cell-Titer Glo; read-out: IC50

pIC50 | Compound
6.66 | Cn1cc(-c2ccc(C(=O)N(c3nccc4cc(-c5ccccc5)ccc34)[C@@H]3CCCNC3)c(F)c2)nn1 [Example 579, (R)-2-fluoro-4-(1-methyl-1H-1,2,3-triazol-4-yl)-N-(6-phenylisoquinolin-1-yl)-N-(piperidin-3-yl)benzamide]
